The text below walks through data of PubChem BioAssay (NCI).

Among the test systems are IGROV1 ovarian; BT-549 breast; SF-539 CNS; DU-145 prostate; U251 CNS; RXF 393 renal; M14 melanoma.
Common to all, as to assay: NCI tumour cell line growth inhibition, 48 h

The structures appear in SMILES notation. “And” between values parts separate entries of the source, which are not always exact repeats. Equal values may be shown once.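 Results reflect a 48-hour exposure of cells in 96-well plates to compound at five concentrations. GI50 = concentration required for 50% inhibition of growth. TGI marks complete inhibition of growth.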

Regarding `CCC(=O)C(CCN1CCC2(CCCc3ccccc32)CC1)(c1ccccc1)c1ccccc1`, the TGI in the assay with IGROV1 ovarian amounted to 10.3 µM; in the assay on BT-549 breast, 3.36 µM; in the assay with SF-539 CNS, 7.3 µM; in the assay with DU-145 prostate, 11.6 µM; in the assay on U251 CNS, 14 µM; in the assay with RXF 393 renal, 6.18 µM. For the same compound, the TGI in the assay on M14 melanoma came to 4.56 µM.
Regarding `COc1ccc2c(c1)c1c(n2CCN(C)C)-c2ccccc2CC1`, the TGI in the assay with IGROV1 ovarian stood at 27 µM; in the assay with BT-549 breast, 30.7 µM; with SF-539 CNS it was 27 µM; in the assay on DU-145 prostate, 29.4 µM; with U251 CNS it was 27.2 µM; in the assay on M14 melanoma, 29.3 µM.
As to `CC1=NC(=Cc2ccccc2O)C(=O)N1n1c(-c2ccccc2)nc2ccccc2c1=O`, the TGI in the assay with IGROV1 ovarian is over 100 µM; in the assay on BT-549 breast, over 100 µM; with SF-539 CNS it was 87.3 µM; in the assay with DU-145 prostate, over 100 µM; with U251 CNS, over 100 µM; in the assay on RXF 393 renal, over 100 µM. Also, the TGI in the assay on M14 melanoma is over 100 µM.
With `CCOC(=O)N1N=C(/C(C)=N/OC)C(C)S1=O` (configuration not stated), the TGI in the assay on IGROV1 ovarian, with BT-549 breast, in the assay on SF-539 CNS, in the assay on DU-145 prostate, in the assay with U251 CNS and in the assay with RXF 393 renal was over 100 µM in each case. Moreover, the TGI with M14 melanoma is over 100 µM.
Regarding `O=[N+]([O-])c1cccc2nc3ccccc3c(NCCCNc3c4ccccc4nc4cccc([N+](=O)[O-])c34)c12`, the TGI with IGROV1 ovarian was 0.967 µM; with BT-549 breast, 0.441 µM; in the assay on SF-539 CNS, 0.149 µM; in the assay on U251 CNS it was 0.181 µM; with RXF 393 renal, under 0.01 µM; in the assay on M14 melanoma, 0.0744 µM.
For `NC1CC(=O)c2c1sc(Cl)c2Cl` (configuration not stated), the TGI in the assay on IGROV1 ovarian, in the assay with BT-549 breast, in the assay on SF-539 CNS, in the assay on DU-145 prostate, with U251 CNS and in the assay on RXF 393 renal was over 100 µM throughout. In addition, in the assay on M14 melanoma, the TGI is over 100 µM.
For the compound `CSC(=S)Nc1cccc(C)n1`, the TGI in the assay on IGROV1 ovarian, in the assay on SF-539 CNS, in the assay with DU-145 prostate, in the assay on U251 CNS, in the assay with RXF 393 renal and with M14 melanoma was over 100 µM each time.
As for `[N-]=[N+]=NI1OC(=O)c2ccccc21`, the TGI in the assay on IGROV1 ovarian, in the assay with SF-539 CNS, in the assay on DU-145 prostate, in the assay on U251 CNS, in the assay with RXF 393 renal and in the assay with M14 melanoma was over 100 µM each time.
With `CCCCc1ccc(-n2sc3ncc(C)cc3c2=O)cc1`, the TGI in the assay with IGROV1 ovarian is over 100 µM; in the assay with BT-549 breast, 40.7 µM; with DU-145 prostate, over 100 µM; with U251 CNS, over 100 µM; in the assay on RXF 393 renal, 73.8 µM; in the assay on M14 melanoma, 29.4 µM.
Consider `O=CNCNCCO`, for which the TGI with IGROV1 ovarian, in the assay on BT-549 breast, with DU-145 prostate, in the assay with U251 CNS, in the assay with RXF 393 renal and with M14 melanoma was over 100 µM each time.
As for `C[N+]12C=CC=C1C(N1CCCC1)c1scc(-c3ccccc3)c12` (configuration not stated), the TGI in the assay with IGROV1 ovarian is 31.6 µM; in the assay with BT-549 breast, over 100 µM; in the assay on DU-145 prostate, over 100 µM; in the assay on U251 CNS, over 100 µM; in the assay on RXF 393 renal it was 90.1 µM; with M14 melanoma, over 100 µM.
As to `CCOC(=O)C1(F)S(=O)(=O)OCCOS1(=O)=O`, the TGI in the assay with BT-549 breast, in the assay on SF-539 CNS, in the assay with DU-145 prostate, in the assay on U251 CNS, in the assay with RXF 393 renal and in the assay on M14 melanoma was over 100 µM throughout.
Take `CC(C)(C)C1=CC(C)(n2[nH]c(=O)n(-c3ccccc3)c2=O)C=C(C(C)(C)C)C1=O`: the TGI in the assay with BT-549 breast, with SF-539 CNS, with DU-145 prostate and in the assay on U251 CNS was over 100 µM each time.
Consider `NS(=O)(=O)c1nnc(NS(=O)(=O)C(F)(F)F)s1`, for which the TGI in the assay with BT-549 breast, in the assay with SF-539 CNS, with DU-145 prostate, in the assay on U251 CNS, with RXF 393 renal and in the assay on M14 melanoma was over 100 µM in each case.
On to `COc1cc(O)c2c(=O)c(O)c(-c3ccc(O)c(OC)c3)oc2c1`, for which the TGI was over 100 µM in the assay with IGROV1 ovarian; over 100 µM in the assay with BT-549 breast; over 100 µM in the assay with SF-539 CNS; over 100 µM with DU-145 prostate; 18.1 µM with U251 CNS; over 100 µM in the assay on M14 melanoma.
Regarding `N#Cc1nc(-c2ccco2)oc1N`, the TGI in the assay on IGROV1 ovarian, with BT-549 breast, in the assay with SF-539 CNS, in the assay with DU-145 prostate, in the assay on RXF 393 renal and in the assay on M14 melanoma was over 10 µM each time.
Take `O=[N+]([O-])c1ccc(OC2CC3C4C=CC3C2C4)c([N+](=O)[O-])c1` (configuration not stated): in the assay on IGROV1 ovarian, the GI50 is 91.5 µM and > 31.6 µM. Also, the TGI with IGROV1 ovarian, in the assay with SF-539 CNS, in the assay on DU-145 prostate, in the assay on U251 CNS, with RXF 393 renal and in the assay on M14 melanoma was over 100 µM each time.
Regarding `Oc1[nH]c2ccccc2c1N=NC(=S)Nc1ccccc1Cl`, the TGI in the assay with IGROV1 ovarian came to 29.8 µM; with SF-539 CNS, 7.86 µM; in the assay on DU-145 prostate, 58.5 µM; with U251 CNS, 55 µM; in the assay on RXF 393 renal, 31.4 µM; in the assay with M14 melanoma, 14.9 µM.
On to `COc1ccc(OC)c(N(CN2C(=O)CCC2C(=O)O)C(C)=O)c1` (configuration not stated), for which the TGI in the assay with IGROV1 ovarian, in the assay with SF-539 CNS, in the assay with DU-145 prostate, with U251 CNS and in the assay with M14 melanoma was over 100 µM in each case.
With `COc1ccc(/C(Br)=C2\OC(=O)c3ccccc32)cc1`, the TGI with IGROV1 ovarian, in the assay on SF-539 CNS, in the assay on DU-145 prostate, with U251 CNS, in the assay on RXF 393 renal and in the assay with M14 melanoma was over 10 µM each time.
